Measured values as given in patent US8148424B2, “Tocopherols, tocotrienols, other chroman and side chain derivatives and uses thereof” (Research Development Foundation, priority 1998, dated 2012).

What was measured:
[1] = system: human cancer cells from a wide variety of cell lineages; assay: Apoptosis induction in a battery of tumor cells; assay type: cell-based; conditions: breast, prostate, leukemia/lymphoid, cervical, ovarian, endometrial, colon, lung cell lines
Protocol: Cells were cultured at 1.5×10^5 cells/well in 12 well plates. Cells were allowed to adhere overnight, then incubated with novel test compounds at 0.01, 0.1, 1, 5, 10 & 20 μg/mL for 1, 2 and 3 days. After treatment, cells (floating+trypsin released adherent cells) were pelleted, washed and stained with 2 μg/ml DAPI (4′,6-diamidine-2′-phenylindole dihydrochloride) in 100% methanol for 15 minutes at 37° C. and/or 3′-OH ends resulting from DNA fragmentation were detected with the TUNEL (terminal deoxynucleotidyl transferase-mediated dUTP-X 3′ nick end-labeling) technique, and then viewed using a Zeiss ICM 405 microscope. Cells whose nucleus contained clearly condensed or fragmented chromatin or stained for fragmented DNA in the TUNEL assay were scored as apoptotic. Data are presented as percent cells undergoing apoptosis.

[2] = Protocol: Prior to conducting the preclinical chemotherapeutic studies, compound 1 is assayed in non-tumor Balb/c female mice in an effort to establish the maximum tolerated dose. Compound 1 is dissolved in 100% ethanol to establish a stock solution (2 grams of compound 1 in 5 mls of 100% ethanol) and diluted in peanut oil (non vitamin E supplemented) to yield 20, 10, and 5 mg/0.1 ml. RRR-α-tocopherol succinate (VES; the succinate moiety is attached to RRR-α-tocopherol via an ester linkage) was solubilized and diluted as described above to yield 20 mg/0.1 ml/gavage, serving as an additional control. A total of 30 Balb/c female mice were placed into 6 groups (5 mice/group) and supplemented by gavage with compound 1 daily for a total of 23 days. Group 1 mice were non treated and served a s control; group 2 mice were the vehicle control group and received 0.1 ml of vehicle (ethanol+peanut oil equivalent to treatment groups)/mouse/day for a total of 23 days, […] of VES daily for a total of 23 days. Treatment groups […] were gavaged daily for 23 days with 5, 10, and 20 mgs of compound 1.

With `Cc1c(C)c2c(c(C)c1OCC(=O)O)CC[C@@](C)(CCC[C@H](C)CCC[C@H](C)CCCC(C)C)O2` [Compound 1, 2,5,7,8-tetramethyl-(2R-(4R,8R,12-trimethyltridecyl)chroman-6-yloxy)acetic acid] the “growth inhibitory (apoptotic inducing) properties specific for human cancer cells” value [1] was “effective”, the toxicity upon autopsy ([2]; at completion of the MTD studies) was “no evidence of toxicity” and the “weights of the mice versus VES treated, untreated and vehicle treated controls” value ([2]; mouse, in vivo) was “no significant difference”.
